These results are taken from ChEMBL document CHEMBL3596169, “Pyridine hydroxamic acids are specific anti-HCV agents affecting HDAC6” (Bioorg Med Chem Lett, 2015).

One may read the CC50 as the concentration that lowers cell viability or growth by half. As usually defined, the EC50 is the concentration at which the effect is half-maximal. A low value points to a more potent agent.

Series [1] addresses T1, Protein deacetylase HDAC6 (Homo sapiens) (UniProt Q9UBN7).
T1 sequence (whole entry): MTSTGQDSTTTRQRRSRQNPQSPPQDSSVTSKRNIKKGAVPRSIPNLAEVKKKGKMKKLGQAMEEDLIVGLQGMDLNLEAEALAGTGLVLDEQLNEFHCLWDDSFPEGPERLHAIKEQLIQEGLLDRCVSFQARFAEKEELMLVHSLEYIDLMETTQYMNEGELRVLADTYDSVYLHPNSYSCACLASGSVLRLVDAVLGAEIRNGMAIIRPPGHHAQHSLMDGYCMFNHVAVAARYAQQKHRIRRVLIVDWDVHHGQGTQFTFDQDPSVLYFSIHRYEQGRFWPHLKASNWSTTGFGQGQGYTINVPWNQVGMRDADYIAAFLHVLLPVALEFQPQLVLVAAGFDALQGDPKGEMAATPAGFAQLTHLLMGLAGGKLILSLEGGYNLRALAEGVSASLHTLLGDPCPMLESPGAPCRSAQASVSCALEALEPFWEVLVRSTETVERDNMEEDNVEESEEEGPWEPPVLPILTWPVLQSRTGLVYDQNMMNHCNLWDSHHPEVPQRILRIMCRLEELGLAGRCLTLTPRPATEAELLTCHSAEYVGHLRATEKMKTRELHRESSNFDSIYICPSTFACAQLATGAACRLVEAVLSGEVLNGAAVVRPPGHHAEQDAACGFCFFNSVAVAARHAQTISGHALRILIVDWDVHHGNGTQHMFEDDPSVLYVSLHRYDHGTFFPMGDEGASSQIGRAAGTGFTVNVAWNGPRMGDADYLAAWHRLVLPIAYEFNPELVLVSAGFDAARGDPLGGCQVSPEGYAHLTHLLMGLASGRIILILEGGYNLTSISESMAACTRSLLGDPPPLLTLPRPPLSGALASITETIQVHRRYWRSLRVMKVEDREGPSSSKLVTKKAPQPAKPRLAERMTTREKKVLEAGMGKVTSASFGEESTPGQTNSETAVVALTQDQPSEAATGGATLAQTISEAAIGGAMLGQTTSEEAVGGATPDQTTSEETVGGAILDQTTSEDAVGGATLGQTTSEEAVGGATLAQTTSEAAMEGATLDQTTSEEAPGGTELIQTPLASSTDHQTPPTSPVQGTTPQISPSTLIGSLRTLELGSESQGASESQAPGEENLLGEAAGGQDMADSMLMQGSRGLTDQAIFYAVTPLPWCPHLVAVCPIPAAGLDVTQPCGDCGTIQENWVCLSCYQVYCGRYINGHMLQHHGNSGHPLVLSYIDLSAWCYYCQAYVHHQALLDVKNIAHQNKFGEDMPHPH
Briefly: Inhibition of HDAC6 in human Huh-luc/neo7 cells assessed as alpha-tubulin acetylation at 3 to 24 uM by Western blotting analysis. It is filed as cell-based. (A western blot detects proteins with antibodies after separation by electrophoresis.)

Series [2] has as its target T1, Protein deacetylase HDAC6 (Homo sapiens). Briefly: Inhibition of HDAC6 in human Huh-luc/neo7 cells assessed as alpha-tubulin acetylation at 20 to 100 uM by Western blotting analysis. It is filed as cell-based.
Series [3] can be described thus: Selectivity index, ratio of CC50 for human HuH7 cells transfected with luc/neo plasmid to EC50 for HCV infected in human Huh-luc/neo7 cells. Also noted: species or system Huh-7.
Series [4] can be described thus: Cytotoxicity against human HuH7 cells transfected with luc/neo plasmid assessed as cell viability after 72 hrs by MTT method. It is filed as cell-based, Huh-7.
The test system of another series is Hepatitis C virus. The series can be described thus: Antiviral activity against HCV infected in human Huh-luc/neo7 cells after 72 hrs by luciferase assay. It is filed as functional, organism-based, Hepacivirus hominis.
Series [5] concerns the target T1, Protein deacetylase HDAC6 (Homo sapiens). The series can be described thus: Inhibition of HDAC6 in human Huh-luc/neo7 cells assessed as alpha-tubulin acetylation at 5 to 60 uM by Western blotting analysis. It is filed as cell-based.

Activity calls are given as the source filed them. The rule behind the calls is not given here.

As to `O=C(NO)c1ccc(Cl)cc1`, the inhibition result in series [1] is “Active”.
On to `O=C(NO)c1ccccn1`, for which, in series [2], the “HDAC6 inhibition (active/not active)” value was “inactive”. In addition, the “Ratio CC50/EC50” value in series [3] came to 24. In addition, the CC50 at 72 h in series [4] was found to be 710 µM. In addition, the half-maximal effective concentration (EC50) in the series on Hepatitis C virus was 30 µM.
Consider `O=C(NO)c1cc[n+]([O-])cc1`, for which, in series [2], the “HDAC6 inhibition (active/not active)” value is “inactive”. Moreover, the “Ratio CC50/EC50” value in series [3] is given as above 59. The half-maximal cytotoxic concentration (CC50) at 72 h in series [4] was above 1000 µM. Further, the EC50 with Hepatitis C virus stood at 17 µM.
Regarding `Cc1ccc(C(=O)NO)cc1`, the inhibition entry in series [5] is “Active”.
In the case of `CONC(=O)c1ccccn1`, the CC50 at 72 h in series [4] was above 1000 µM. Moreover, in the series on Hepatitis C virus, the EC50 was above 1000 µM.
As to `O=C(NO)c1ccc[n+]([O-])c1`, in series [2], the “HDAC6 inhibition (active/not active)” value was “Active”. Further, in series [3], the “Ratio CC50/EC50” value is above 50. Also, the CC50 at 72 h in series [4] is above 1000 µM. This compound also returned an EC50 in the series with Hepatitis C virus of 20 µM.
`O=C(NO)c1ncccc1Cl`: the “Ratio CC50/EC50” value in series [3] was 100. Moreover, the CC50 at 72 h in series [4] was determined as 800 µM. This compound came in with an EC50 in the series with Hepatitis C virus of 8 µM.
With `O=C(NO)c1cccc[n+]1[O-]`, the “HDAC6 inhibition (active/not active)” value in series [2] was “inactive”. Besides, the “Ratio CC50/EC50” value in series [3] worked out at 150. For the same compound, in series [4], the half-maximal cytotoxic concentration (CC50) at 72 h stood at 900 µM. The EC50 in the series with Hepatitis C virus came to 6 µM.
On to `CN(O)C(=O)c1cccc[n+]1[O-]`, for which the half-maximal cytotoxic concentration (CC50) at 72 h in series [4] is above 1000 µM. The half-maximal effective concentration (EC50) in the series on Hepatitis C virus was above 1000 µM.
As to `CN(O)C(=O)c1ccccn1`, the “Ratio CC50/EC50” value in series [3] was above 4. For the same compound, the CC50 at 72 h in series [4] is above 1000 µM. In addition, it took 240 µM to reach a half-maximal effect in the series on Hepatitis C virus (EC50).
On to `O=C(NO)c1ccccc1`, for which the “HDAC6 inhibition (active/not active)” value in series [2] is “Active”.
`O=C(NO)c1ccncc1`: the “HDAC6 inhibition (active/not active)” value in series [2] is “Active”. In series [3], the “Ratio CC50/EC50” value was 12. In addition, the CC50 at 72 h in series [4] turned out to be 210 µM. This compound also yielded a concentration for a half-maximal effect (EC50) with Hepatitis C virus of 17 µM.
On to `Cn1cccc(C(=O)NO)c1=O`, for which, in series [3], the “Ratio CC50/EC50” value is given as above 83. For the same compound, the CC50 at 72 h in series [4] is above 1000 µM. A half-maximal response in the series with Hepatitis C virus (EC50) required 12 µM.
The corresponding values for `COc1cccnc1C(=O)NO` are 180, 880 µM and 5 µM.
With `O=C(NO)c1cccnc1` [NICOXAMAT], in series [2], the “HDAC6 inhibition (active/not active)” value is “Active”. Also, the “Ratio CC50/EC50” value in series [3] turned out to be 18. The CC50 at 72 h in series [4] came to 450 µM. Also, in the series with Hepatitis C virus, a half-maximal effect (EC50) was put at 25 µM.
